Key:
Format in all cases: binding
5-HT2A receptor = molecular target: T1, 5-HT2A receptor (Rattus norvegicus, UniProt P14842); assay: affinity to 5-HT2A receptors, [3H]ketanserine displacement (Example A1)
T1 construct: Frontal rat cortex is homogenised in ice-cold buffer; from tissue; host or cells: rat frontal cortex homogenate
Experimental: For in-vitro detection of the affinity to 5-HT2A receptors, the following test (Example A1), for example, can be used. The 5-HT2A receptors are exposed both to [^3H]ketanserine (a substance which is known for its affinity to the receptor) and also to the test compound. The decrease in the affinity of [^3H]ketanserine to the receptor is an indication of the affinity of the test substance to the 5-HT2A receptor. The detection is carried out analogously to the description by J. E. Leysen et al., Molecular Pharmacology, 1982, 21: 301-314, or as also described, for example, in EP 0320983.
Preparation of a suspension of 5-HT2A receptors: Frontal rat cortex is homogenised in ice-cold buffer. The homogenate is centrifuged at 4° C. and 50,000×for 10 minutes. The pellet is re-suspended in 2.5 ml of ice-cold tris buffer, made up with 10 ml of additional buffer and centrifuged as described. The pellet is then re-suspended in buffer and diluted to give a homogenate which comprises 60 mg of material/ml. 0.1 ml of the suspension, 100 μl of a 5 nM solution of [^3H]ketanserine, 100 μl of a solution of the test compound (concentration in the range from 10^−5 to 10^−10 mol per litre) are introduced into the incubation tubes and made up to 1 ml with buffer. The tubes are incubated at 37° C. for 15 minutes. […] The filters are analysed by liquid scintillation spectrometry in 8 ml of Triton-X scintillator liquid.

5-HT2C receptor = 5-HT2C receptor (Homo sapiens, UniProt P28335); assay: IC50 at the 5-HT2C receptor
5-HT2C receptor, sequence (P28335 33-458): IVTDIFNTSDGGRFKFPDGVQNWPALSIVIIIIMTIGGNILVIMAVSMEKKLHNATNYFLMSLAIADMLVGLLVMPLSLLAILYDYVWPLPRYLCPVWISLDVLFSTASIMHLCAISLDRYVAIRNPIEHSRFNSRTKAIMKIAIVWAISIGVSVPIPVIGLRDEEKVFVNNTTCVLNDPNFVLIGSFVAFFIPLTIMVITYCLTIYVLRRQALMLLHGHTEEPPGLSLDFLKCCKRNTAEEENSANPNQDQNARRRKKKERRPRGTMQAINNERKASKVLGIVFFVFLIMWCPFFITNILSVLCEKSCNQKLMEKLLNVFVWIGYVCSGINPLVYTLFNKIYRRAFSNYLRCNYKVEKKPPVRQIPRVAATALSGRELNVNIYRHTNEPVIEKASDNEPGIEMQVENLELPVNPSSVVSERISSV

5-HT1A receptor = molecular target: T2, 5-HT1A receptor (Homo sapiens, UniProt P08908); assay: IC50 at the 5-HT1A receptor
T2 sequence (P08908 1-422): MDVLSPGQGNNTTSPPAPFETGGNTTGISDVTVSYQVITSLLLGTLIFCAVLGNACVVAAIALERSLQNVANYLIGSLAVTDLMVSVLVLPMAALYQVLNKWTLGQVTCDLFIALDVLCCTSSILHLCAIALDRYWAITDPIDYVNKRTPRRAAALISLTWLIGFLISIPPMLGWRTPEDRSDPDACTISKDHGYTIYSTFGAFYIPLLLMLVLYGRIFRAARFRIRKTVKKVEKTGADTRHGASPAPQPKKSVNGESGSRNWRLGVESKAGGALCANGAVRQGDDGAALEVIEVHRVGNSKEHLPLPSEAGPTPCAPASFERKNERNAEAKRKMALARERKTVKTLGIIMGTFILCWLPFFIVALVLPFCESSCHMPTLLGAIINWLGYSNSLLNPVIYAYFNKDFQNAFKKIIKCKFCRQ

5-HT1B receptor = 5-HT1B receptor (Homo sapiens, UniProt P28222); assay: IC50 at the 5-HT1B receptor
5-HT1B receptor, sequence (P28222 whole entry): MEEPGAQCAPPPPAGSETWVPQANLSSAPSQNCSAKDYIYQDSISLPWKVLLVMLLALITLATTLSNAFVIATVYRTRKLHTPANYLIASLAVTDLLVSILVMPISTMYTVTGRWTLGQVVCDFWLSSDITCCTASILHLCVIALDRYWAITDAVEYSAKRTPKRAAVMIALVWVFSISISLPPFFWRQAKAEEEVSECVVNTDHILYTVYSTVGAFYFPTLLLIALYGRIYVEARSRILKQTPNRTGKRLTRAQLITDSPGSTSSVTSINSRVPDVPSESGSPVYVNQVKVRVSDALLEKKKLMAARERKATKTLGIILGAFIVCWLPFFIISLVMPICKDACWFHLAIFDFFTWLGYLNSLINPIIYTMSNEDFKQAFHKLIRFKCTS

5-HT1D receptor = 5-HT1D receptor (Homo sapiens, UniProt P28221); assay: IC50 at the 5-HT1D receptor
5-HT1D receptor, sequence (P28221 whole entry): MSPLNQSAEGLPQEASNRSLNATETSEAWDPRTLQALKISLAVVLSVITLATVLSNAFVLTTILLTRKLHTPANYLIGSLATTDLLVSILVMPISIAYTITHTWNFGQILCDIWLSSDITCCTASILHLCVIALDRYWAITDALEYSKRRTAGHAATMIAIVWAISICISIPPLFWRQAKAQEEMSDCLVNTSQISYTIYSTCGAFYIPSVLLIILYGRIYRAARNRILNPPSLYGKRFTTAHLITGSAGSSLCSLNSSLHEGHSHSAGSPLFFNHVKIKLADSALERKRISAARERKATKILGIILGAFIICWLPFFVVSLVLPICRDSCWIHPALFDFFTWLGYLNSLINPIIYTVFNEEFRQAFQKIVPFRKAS

D2 receptor = D2 receptor (Homo sapiens, UniProt P14416); assay: IC50 at the D2 receptor
D2 receptor, sequence (P14416 whole entry): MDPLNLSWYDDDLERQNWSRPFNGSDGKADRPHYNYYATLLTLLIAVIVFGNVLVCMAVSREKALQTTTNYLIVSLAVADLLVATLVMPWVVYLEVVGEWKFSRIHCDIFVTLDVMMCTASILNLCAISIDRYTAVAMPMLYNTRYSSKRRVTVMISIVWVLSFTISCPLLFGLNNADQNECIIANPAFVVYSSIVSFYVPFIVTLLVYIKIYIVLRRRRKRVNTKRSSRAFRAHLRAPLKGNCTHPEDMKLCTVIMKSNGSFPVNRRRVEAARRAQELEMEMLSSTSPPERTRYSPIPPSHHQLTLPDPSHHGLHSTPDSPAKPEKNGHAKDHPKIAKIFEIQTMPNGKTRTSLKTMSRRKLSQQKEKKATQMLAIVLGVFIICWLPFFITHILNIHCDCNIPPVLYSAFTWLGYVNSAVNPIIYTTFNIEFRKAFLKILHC

T1 sequence (P14842 whole entry): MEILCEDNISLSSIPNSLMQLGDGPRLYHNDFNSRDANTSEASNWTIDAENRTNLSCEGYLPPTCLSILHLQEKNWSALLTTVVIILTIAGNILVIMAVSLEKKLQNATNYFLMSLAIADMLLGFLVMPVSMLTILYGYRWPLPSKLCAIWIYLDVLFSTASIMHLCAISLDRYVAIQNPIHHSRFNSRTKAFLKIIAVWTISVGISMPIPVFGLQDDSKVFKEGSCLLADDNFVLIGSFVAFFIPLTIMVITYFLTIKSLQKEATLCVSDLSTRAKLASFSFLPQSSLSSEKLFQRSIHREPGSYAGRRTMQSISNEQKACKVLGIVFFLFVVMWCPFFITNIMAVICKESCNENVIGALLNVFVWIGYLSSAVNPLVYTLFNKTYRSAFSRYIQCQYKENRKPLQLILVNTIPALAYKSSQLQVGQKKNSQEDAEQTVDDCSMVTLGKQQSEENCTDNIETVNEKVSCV

SMILES: O=C(c1nccc2ccccc12)N1CCN(CCc2ccc(F)cc2)CC1 [Example 1, {4-[2-(4-fluorophenyl)ethyl]piperazin-1-yl}isoquinolin-1-ylmethanone]
- IC50 (5-HT2A receptor): 1 nM
- factor by which the affinities differ (5-HT2A receptor; 5-HT2A versus 5-HT2C, 5-HT1A, 5-HT1B, 5-HT1D and D2 receptors): greater than 1000
- IC50 (5-HT2C receptor): > 1000 nM
- IC50 (5-HT1A receptor): > 1000 nM
- IC50 (5-HT1B receptor): > 1000 nM
- IC50 (5-HT1D receptor): > 1000 nM
- IC50 (D2 receptor): > 1000 nM

From patent US7329749B2, “Piperazinylcarbonylquinolines and -isoquinolines” (Merck Patent Gesellschaft, priority 2001, dated 2008)
